{"source": "patent US20090312437A1", "about": "“Anthraquinones and Analogs from Rhuem palmatum for Treatment of Estrogen Receptor Beta-Mediated Conditions” (Bionovo, Inc., A Delaware Corporation, priority 2008, published 2009)", "key": {"[1]": {"tested_on": "MCF-7 breast cancer cells", "assay": "MCF-7 kidney capsule graft tumor formation in nude mice", "format": "in vivo, CD-1/Nude female mice", "details": "MCF-7 grafts, 28 days, subcutaneous Alzet pump, 2 mg/200 μL for 6, 360 μg/200 μL for estradiol", "method": "(§1) The effects of 6 were tested in vivo on breast cancer tumor formation and uterine proliferation. CD-1/Nude female mice, 40-50 days old at time of grafting were selected. Each mouse received 2 grafts per kidney, 4 grafts total with MCF-7 breast cancer cells in 25 μL collagen per graft. Compound 6 was delivered subcutaneously with a Alzet Osmotic pump filled with 200 μL of 6 for 28 days. […] At the end of 28 days of treatment, all grafts and uteri were isolated, pictures taken, weighed, and fixed in formalin."}, "ERα": {"target": "T1, ERα (Homo sapiens, UniProt P03372)", "T1 construct": "expressed in transfected cells; host or cells: U2OS (human osteosarcoma)", "T1 sequence (P03372 1-595)": "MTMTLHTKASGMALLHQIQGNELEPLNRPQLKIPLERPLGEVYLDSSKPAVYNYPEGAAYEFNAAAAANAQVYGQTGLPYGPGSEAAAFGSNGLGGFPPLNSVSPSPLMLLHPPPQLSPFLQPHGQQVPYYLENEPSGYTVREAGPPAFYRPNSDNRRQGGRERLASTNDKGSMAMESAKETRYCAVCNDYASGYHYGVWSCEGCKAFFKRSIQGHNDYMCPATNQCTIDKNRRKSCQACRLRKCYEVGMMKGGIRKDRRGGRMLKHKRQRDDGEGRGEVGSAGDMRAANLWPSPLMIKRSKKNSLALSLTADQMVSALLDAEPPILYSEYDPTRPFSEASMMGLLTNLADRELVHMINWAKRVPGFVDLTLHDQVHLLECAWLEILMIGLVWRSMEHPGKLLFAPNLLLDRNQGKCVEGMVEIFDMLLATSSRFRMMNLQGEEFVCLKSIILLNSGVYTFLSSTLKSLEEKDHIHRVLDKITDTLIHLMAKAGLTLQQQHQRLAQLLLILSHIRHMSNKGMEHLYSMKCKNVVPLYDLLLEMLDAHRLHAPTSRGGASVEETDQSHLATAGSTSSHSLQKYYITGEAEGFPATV", "assay": "ERE-tk-Luc luciferase transient transfection assay in U2OS cells with ERα", "format": "cell-based", "details": "ERα expression vector", "experimental": "(§2) The isolated and two purchased (4, 5) anthraquinones, were tested for their ERα and ERβ activities using transient transfection assays in the human U2OS bone cell line with an estrogen response element linked to the luciferase reporter gene (ERE-tkLuc).\n(§3) U2OS osteosarcoma cells were cotransfected with a classic ERE upstream of a minimal thymidine kinase (tk) promoter (ERE-tk-Luc) and expression vectors for human ERα or ERβ."}, "uterine proliferation": {"tested_on": "uterine proliferation", "assay": "Uterine proliferation in nude mice, 28 days subcutaneous osmotic pump", "format": "in vivo, CD-1/Nude female mice", "details": "subcutaneous Alzet pump, 2 mg/200 μL for 6, 360 μg/200 μL for estradiol", "method": "as §1"}, "ERβ [2]": {"target": "T2, ERβ (Homo sapiens, UniProt Q92731)", "T2 sequence (Q92731 whole entry)": "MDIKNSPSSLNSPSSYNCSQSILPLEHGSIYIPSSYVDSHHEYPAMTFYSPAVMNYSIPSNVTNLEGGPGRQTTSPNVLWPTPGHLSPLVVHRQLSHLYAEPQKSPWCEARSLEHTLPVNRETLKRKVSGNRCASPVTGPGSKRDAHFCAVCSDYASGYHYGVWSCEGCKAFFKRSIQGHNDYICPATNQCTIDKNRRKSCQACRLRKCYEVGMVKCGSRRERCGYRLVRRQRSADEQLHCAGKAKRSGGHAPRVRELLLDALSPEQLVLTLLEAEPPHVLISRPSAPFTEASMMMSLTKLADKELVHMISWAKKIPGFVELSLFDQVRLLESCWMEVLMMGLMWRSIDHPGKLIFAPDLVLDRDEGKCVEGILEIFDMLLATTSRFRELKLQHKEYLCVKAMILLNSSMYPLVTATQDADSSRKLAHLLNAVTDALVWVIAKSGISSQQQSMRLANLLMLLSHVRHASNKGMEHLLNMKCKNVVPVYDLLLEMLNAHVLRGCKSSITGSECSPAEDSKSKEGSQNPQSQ", "assay": "Repression of TNF-α activation of TNF-RE tkLuc in U2OS cells with ERβ", "format": "cell-based", "set-up": "expressed in transfected cells; host or cells: U2OS (human osteosarcoma)"}, "[3]": {"details": "five years of therapy; cited from earlier work"}, "[4]": {"details": "women at high risk for breast cancer; cited from earlier work"}, "ERβ [5]": {"target": "T2, ERβ", "assay": "ERE-tk-Luc luciferase transient transfection assay in U2OS cells with ERβ", "experimental": "as §2, §3"}, "ERβ [6]": {"target": "T2, ERβ", "assay": "ER binding curves (ERβ compared with ERα)"}}}
{"molecule": "O=C1c2c(O)c(O)c(O)c(O)c2C(=O)c2c(O)c(O)c(O)c(O)c21", "note": "[compound 6, octahydroxyanthraquinone]", "values": [{"measurement": "tumor formation / proliferation in kidney capsule grafts as compared to control", "setting": "[1]", "value": "does not increase breast cancer tumor formation"}, {"measurement": "tumor formation / proliferation in kidney capsule grafts as compared to control", "setting": "[1]; listed as octahydroxyanthraquinone", "value": "suppresses tumor proliferation"}, {"measurement": "activation of ERE-tk-Luc in the presence of ERα", "setting": "ERα", "value": "no effect on ERα"}]}
{"molecule": "C[C@]12CC[C@@H]3c4ccc(O)cc4CC[C@H]3[C@@H]1CC[C@@H]2O", "note": "[estradiol, reference compound]", "values": [{"measurement": "uterine proliferation as compared to control", "setting": "uterine proliferation", "value": "stimulates uterine proliferation"}, {"measurement": "repression of TNF-α activity on ERβ", "setting": "ERβ [2]; data not shown", "value": 100, "unit": "%"}]}
{"molecule": "CC/C(=C(\\c1ccccc1)c1ccc(OCCN(C)C)cc1)c1ccccc1", "note": "[tamoxifen]", "values": [{"measurement": "reduction of mortality from breast cancer", "setting": "[3]", "value": 22, "unit": "%"}, {"measurement": "reduction of the risk of recurrences", "setting": "[3]", "value": 42, "unit": "%"}, {"measurement": "reduction of the risk of primary invasive breast cancer", "setting": "[4]", "value": 49, "unit": "%"}]}
{"molecule": "aloe-emodin [compound 2]", "values": [{"measurement": "ERβ-activation of ERE-tk-luc in the presence of compound and raloxifene", "setting": "ERβ [5]", "value": "attenuated"}, {"measurement": "ERβ-activation of ERE-tk-luc in the presence of compound and tamoxifen", "setting": "ERβ [5]", "value": "attenuated"}, {"measurement": "repression of TNF-α activation of TNF-RE in the presence of ERβ", "setting": "ERβ [2]", "value": "produced repression"}]}
{"molecule": "emodin [compound 1]", "values": [{"measurement": "ERβ-activation of ERE-tk-luc in the presence of compound and raloxifene", "setting": "ERβ [5]; listed as Emodin", "value": "attenuated"}, {"measurement": "ERβ-activation of ERE-tk-luc in the presence of compound and raloxifene", "setting": "ERβ [5]; listed as emodin", "value": "repressed"}, {"measurement": "ERβ-activation of ERE-tk-luc in the presence of compound and tamoxifen", "setting": "ERβ [5]; listed as Emodin", "value": "attenuated"}, {"measurement": "ERβ-activation of ERE-tk-luc in the presence of compound and tamoxifen", "setting": "ERβ [5]; listed as emodin", "value": "repressed"}, {"measurement": "ERβ-binding curve as compared to the ERα-binding curve", "setting": "ERβ [6]", "value": "very similar"}, {"measurement": "repression of TNF-α activation of TNF-RE in the presence of ERβ", "setting": "ERβ [2]", "value": "produced repression"}]}
